These results are taken from patent US9187465B2, “Oxazole tyrosine kinase inhibitors” (Sareum Limited, priority 2007, dated 2015).

The target in one assay is T1, human FLT4 (Homo sapiens, UniProt P35916).
T1 construct: a construct expressing the human FLT4 (789-1207) with an amino terminal GST tag; host or cells: Sf9 insect cells (baculovirus)
The assay can be described thus: FLT4 kinase assay (DELFIA enzyme inhibition). It is filed as biochemical. Summed up:
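GST-tagged human FLT4 (789-1207) from Sf9 cells phosphorylates a biotinylated MET (Tyr1253)-derived peptide for 30 min at room temperature, stopped with EDTA. Phosphopeptide is captured on Neutravidin and detected with Eu-labelled anti-phosphotyrosine antibody by time-resolved fluorescence; IC50 from % inhibition curves.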

A further assay has as its target T2, human Aurora A (Homo sapiens, UniProt O14965).
T2 construct: Histidine tag (N); host or cells: Sf9 insect cells (baculovirus)
T2 sequence (O14965 1-403): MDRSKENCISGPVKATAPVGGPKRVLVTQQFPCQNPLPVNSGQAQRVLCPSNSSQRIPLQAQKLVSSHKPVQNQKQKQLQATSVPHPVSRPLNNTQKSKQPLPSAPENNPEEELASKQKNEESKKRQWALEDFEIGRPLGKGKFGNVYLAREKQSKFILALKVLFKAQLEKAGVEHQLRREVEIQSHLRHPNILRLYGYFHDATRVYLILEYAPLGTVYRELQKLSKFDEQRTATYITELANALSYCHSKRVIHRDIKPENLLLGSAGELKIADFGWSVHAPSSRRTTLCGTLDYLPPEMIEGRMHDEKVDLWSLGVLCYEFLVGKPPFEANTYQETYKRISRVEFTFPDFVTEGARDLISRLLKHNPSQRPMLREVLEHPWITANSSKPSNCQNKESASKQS
As to the kind of experiment: Aurora A kinase assay (DELFIA enzyme inhibition). Type of assay: biochemical. How it is done:
The protein was purified by one-step affinity chromatography using nickel-agarose […]
Assay reactions are set up in a 25 uL final volume on a 96 well plate. […] The reaction is allowed to proceed for 30 minutes at room temperature before stopping with 100 μL Stop solution comprising of 100 mM EDTA, 1×BSA blocker in TBS (Perbio) and 0.05% Surfact-Amps20 (Perbio).
The stopped reaction is transferred to a black 96-well Neutravidin-coated plate (Perbio) and incubated for 30 minutes to capture the biotinylated peptide substrate. […] After repeating the washing step, the plate is further incubated for one hour with Europium-labelled anti-rabbit antibody (Perkin Elmer AD0105). The wash step is repeated for a final time before DELFIA Enhancement solution (Perkin Elmer) is added to all wells for 5 minutes and the fluorescence measured on a plate reader Analyst HT (Molecular Devices).

Read-outs that look alike come from different tables or passages of the source.

T1 sequence (P35916 789-1207): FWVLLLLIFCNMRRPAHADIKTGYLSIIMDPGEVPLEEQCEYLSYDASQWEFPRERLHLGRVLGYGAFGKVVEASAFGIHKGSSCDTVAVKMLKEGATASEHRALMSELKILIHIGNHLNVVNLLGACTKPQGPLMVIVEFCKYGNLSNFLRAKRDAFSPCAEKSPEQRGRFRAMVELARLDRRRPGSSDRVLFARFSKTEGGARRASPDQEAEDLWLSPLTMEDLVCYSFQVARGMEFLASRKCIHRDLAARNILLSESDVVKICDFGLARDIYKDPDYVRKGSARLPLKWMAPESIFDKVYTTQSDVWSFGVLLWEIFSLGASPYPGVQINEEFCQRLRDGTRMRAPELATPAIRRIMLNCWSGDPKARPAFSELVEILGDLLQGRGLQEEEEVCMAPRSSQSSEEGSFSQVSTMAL

For the compound `COc1ccc(-c2nc(-c3cn(C)c4ccccc34)[nH]c2C(N)=O)cc1` [Example B-4, 4-(4-methoxyphenyl)-2-(1-methyl-1H-indol-3-yl)-1H-imidazole-5-carboxamide], the IC50 at human FLT4 (read-out: FLT4 IC50) and on human Aurora A (read-out: Aurora A IC50) was less than 100 µM each time.
`NC(=O)c1[nH]c(-c2c(F)cccc2F)nc1-c1ccccn1` [Example C-1, 2-(2,6-difluorophenyl)-4-(pyridin-2-yl)-1H-imidazole-5-carboxamide]: the concentration for half-maximal inhibition (IC50) on human FLT4 (read-out: FLT4 IC50) and on human Aurora A (read-out: Aurora A IC50) was less than 100 µM each time.
In the case of `COc1ccc(-c2nc(-c3c[nH]c4ccccc34)[nH]c2C(N)=O)cc1` [Example A-13, 2-(1H-indol-3-yl)-4-(4-methoxyphenyl)-1H-imidazole-5-carboxamide], the half-maximal inhibitory concentration (IC50) on human FLT4 (read-out: FLT4 IC50) is less than 10 µM; on human Aurora A (read-out: Aurora A IC50), less than 100 µM.
As for `CCCN(CCO)CCOc1ccc(-c2oc(-c3c(F)cccc3F)nc2C(N)=O)cc1` [Example S-16, 2-(2,6-difluorophenyl)-5-(4-(2-((2-hydroxyethyl)(propyl)amino)ethoxy)phenyl)oxazole-4-carboxamide], the IC50 on human FLT4 (read-out: FLT4 IC50) and at human Aurora A (read-out: Aurora A IC50) was less than 10 µM throughout.
In the case of `COc1cccc(Nc2oc(-c3c(F)cccc3F)nc2C(N)=O)c1` [Example Q-6, 2-(2,6-difluorophenyl)-5-(3-methoxyphenylamino)oxazole-4-carboxamide], the IC50 on human FLT4 (read-out: FLT4 IC50) and on human Aurora A (read-out: Aurora A IC50) was less than 100 µM throughout.
Turning to `CN1C2CCC1CC(NC(=O)c1ccc(Nc3oc(-c4c(F)cccc4F)nc3C(N)=O)cc1)C2` (stereo not drawn) [Example U-11, 5-(4-((8-methyl-8-aza-bicyclo[3.2.1]octan-3-yl)carbamoyl)phenylamino)-2-(2,6-difluorophenyl)oxazole-4-carboxamide], the IC50 against human FLT4 and against human Aurora A was less than 10 µM in each case.
In the case of `COc1ccc(-c2nc(-c3ccccc3Cl)[nH]c2C(N)=O)cc1` [Example A-2, 2-(2-chlorophenyl)-4-(4-methoxyphenyl)-1H-imidazole-5-carboxamide], the IC50 on human FLT4 (read-out: FLT4 IC50) and at human Aurora A (read-out: Aurora A IC50) was less than 100 µM in each case.
`NC(=O)c1nc(-c2c(F)cccc2F)oc1Nc1ccc(C(=O)NC2CN3CCC2CC3)cc1` (stereo not drawn) [Example U-10, 2-(2,6-difluorophenyl)-5-(4-(quinuclidin-3-ylcarbamoyl)phenylamino)oxazole-4-carboxamide]: the IC50 against human FLT4 and at human Aurora A was less than 10 µM each time.
On to `NC(=O)c1nc(-c2c(F)cccc2F)oc1Nc1ccc(N2CCOCC2)nc1` [Example Q-48, 2-(2,6-difluorophenyl)-5-(6-morpholinopyridin-3-ylamino)oxazole-4-carboxamide], for which the IC50 at human FLT4 (read-out: FLT4 IC50) and on human Aurora A (read-out: Aurora A IC50) was less than 10 µM throughout.
`NC(=O)c1nc(-c2c(F)cccc2F)oc1Nc1ccc(OC(F)(F)F)cc1` [Example Q-42, 2-(2,6-difluorophenyl)-5-(4-(trifluoromethoxy)phenylamino)oxazole-4-carboxamide]: the values for the IC50 on human FLT4 (read-out: FLT4 IC50) and at human Aurora A (read-out: Aurora A IC50) were less than 10 µM and less than 100 µM, respectively.
On to `COc1ccc(Nc2oc(-c3c(F)cccc3F)nc2C(N)=O)cc1OC` [Example Q-39, 2-(2,6-difluorophenyl)-5-(3,4-dimethoxyphenylamino)oxazole-4-carboxamide], for which the IC50 on human FLT4 (read-out: FLT4 IC50) was less than 10 µM; on human Aurora A (read-out: Aurora A IC50) it was less than 100 µM.
The corresponding values for `CS(=O)(=O)c1ccc(Nc2oc(-c3c(F)cccc3F)nc2C(N)=O)c(F)c1` [Example Q-43, 2-(2,6-difluorophenyl)-5-(2-fluoro-4-(methylsulfonyl)phenylamino)oxazole-4-carboxamide] are less than 10 µM and less than 100 µM.
In the same order, the values of `NC(=O)c1nc(-c2c(F)cccc2F)oc1-c1ccc(OCC2CCNCC2)cc1` [Example S-14, 2-(2,6-difluorophenyl)-5-(4-(piperidin-4-ylmethoxy)phenyl)oxazole-4-carboxamide] are less than 10 µM and less than 10 µM.
In the same order, the values of `NC(=O)c1nc(-c2c(F)cccc2F)oc1Nc1ccc(C(=O)N2CCOCC2)cc1` [Example U-2, 2-(2,6-difluorophenyl)-5-(4-(morpholine-4-carbonyl)phenylamino)oxazole-4-carboxamide] are less than 10 µM and less than 10 µM.
For `NC(=O)c1nc(-c2c(F)cccc2F)oc1-c1ccc(OCC2CNCCO2)cc1` (stereo not drawn) [Example S-15, 2-(2,6-difluorophenyl)-5-(4-(morpholin-2-ylmethoxy)phenyl)oxazole-4-carboxamide], the IC50 on human FLT4 (read-out: FLT4 IC50) and at human Aurora A (read-out: Aurora A IC50) was less than 10 µM each time.
On to `COc1ccc(-c2nc(-c3ccccc3OC)[nH]c2C(N)=O)cc1` [Example A-3, 2-(2-methoxyphenyl)-4-(4-methoxyphenyl)-1H-imidazole-5-carboxamide], for which the IC50 at human FLT4 (read-out: FLT4 IC50) and on human Aurora A (read-out: Aurora A IC50) was less than 100 µM in each case.
As to `NC(=O)c1nc(-c2ccc3[nH]ccc3c2)oc1-c1ccc(N2CCNCC2)cc1` [Example M-15, 2-(1H-indol-5-yl)-5-(4-(piperazin-1-yl)phenyl)oxazole-4-carboxamide], the concentration for half-maximal inhibition (IC50) at human FLT4 (read-out: FLT4 IC50) and on human Aurora A (read-out: Aurora A IC50) was less than 10 µM in each case.
`NC(=O)c1nc(-c2c(F)cccc2F)oc1Nc1ccccc1` [Example O-1, 2-(2,6-difluorophenyl)-5-(phenylamino)oxazole-4-carboxamide]: the concentration for half-maximal inhibition (IC50) at human FLT4 (read-out: FLT4 IC50) and on human Aurora A (read-out: Aurora A IC50) was less than 10 µM throughout.
Take `COc1ccc(-c2nc(-c3csc4ccccc34)[nH]c2C(N)=O)cc1` [Example B-3, 2-(benzo[b]thiophen-3-yl)-4-(4-methoxyphenyl)-1H-imidazole-5-carboxamide]: the IC50 on human FLT4 (read-out: FLT4 IC50) and on human Aurora A (read-out: Aurora A IC50) was less than 100 µM each time.
With `NC(=O)c1nc(-c2c(F)cccc2F)oc1-c1ccc(OCCN2CCCC(O)C2)cc1` (stereo not drawn) [Example S-17, 2-(2,6-difluorophenyl)-5-(4-(2-(3-hydroxypiperidin-1-yl)ethoxy)phenyl)oxazole-4-carboxamide], the 50% inhibitory concentration (IC50) on human FLT4 (read-out: FLT4 IC50) and at human Aurora A (read-out: Aurora A IC50) was less than 10 µM throughout.
`COc1ccc(Nc2nc(C(N)=O)c(-c3ccc(OC)cc3)o2)cc1` [Example R-4, 5-(4-methoxyphenyl)-2-(4-methoxyphenylamino)oxazole-4-carboxamide]: the IC50 on human FLT4 (read-out: FLT4 IC50) was less than 10 µM; on human Aurora A (read-out: Aurora A IC50), less than 100 µM.
For the compound `NC(=O)c1nc(-c2cccnc2)oc1-c1ccc(N2CCNCC2)cc1` [Example M-13, 5-(4-(piperazin-1-yl)phenyl)-2-(pyridin-3-yl)oxazole-4-carboxamide], the IC50 at human FLT4 (read-out: FLT4 IC50) and at human Aurora A (read-out: Aurora A IC50) was less than 10 µM in each case.
For `NC(=O)c1nc(-c2c(F)cccc2F)oc1-c1ccc(NCCN2CCCCC2)cc1` [Example F-32, 2-(2,6-difluorophenyl)-5-(4-(2-(piperidin-1-yl)ethylamino)phenyl)oxazole-4-carboxamide], the IC50 on human FLT4 (read-out: FLT4 IC50) and at human Aurora A (read-out: Aurora A IC50) was less than 10 µM each time.
As to `COc1ccc(-c2nc(-c3ccc(C)cc3)[nH]c2C(N)=O)cc1` [Example A-8, 4-(4-methoxyphenyl)-2-p-tolyl-1H-imidazole-5-carboxamide], the IC50 on human FLT4 (read-out: FLT4 IC50) and on human Aurora A (read-out: Aurora A IC50) was less than 100 µM in each case.
In the case of `NC(=O)c1nc(-c2c(F)cccc2F)oc1Nc1ccc2c(c1)OCO2` [Example Q-41, 5-(benzo[d][1,3]dioxol-5-ylamino)-2-(2,6-difluorophenyl)oxazole-4-carboxamide], the half-maximal inhibitory concentration (IC50) at human FLT4 (read-out: FLT4 IC50) and at human Aurora A (read-out: Aurora A IC50) was less than 100 µM in each case.
For `NC(=O)c1nc(-c2c(F)cccc2F)oc1-c1ccc(OCCN2CCC(CO)CC2)cc1` [Example S-18, 2-(2,6-difluorophenyl)-5-(4-(2-(4-(hydroxymethyl)piperidin-1-yl)ethoxy)phenyl)oxazole-4-carboxamide], the IC50 at human FLT4 (read-out: FLT4 IC50) and at human Aurora A (read-out: Aurora A IC50) was less than 10 µM throughout.
As to `NC(=O)c1nc(-c2cccc3[nH]ncc23)oc1Nc1ccc(N2CCNCC2)cc1` [Example Q-59, 2-(1H-indazol-4-yl)-5-(4-(piperazin-1-yl)phenylamino)oxazole-4-carboxamide], the IC50 at human FLT4 (read-out: FLT4 IC50) and on human Aurora A (read-out: Aurora A IC50) was less than 10 µM each time.
`NC(=O)c1ccc(-c2oc(-c3c(F)cccc3F)nc2C(N)=O)cc1` [Example F-17, 5-(4-carbamoylphenyl)-2-(2,6-difluorophenyl)oxazole-4-carboxamide]: the IC50 at human FLT4 (read-out: FLT4 IC50) and on human Aurora A (read-out: Aurora A IC50) was less than 10 µM each time.
On to `NC(=O)c1nc(-c2c(F)cccc2F)oc1Nc1ccc(C(=O)NCCN2CCOCC2)cc1` [Example U-9, 5-(4-((2-morpholinoethyl)carbamoyl)phenylamino)-2-(2,6-difluorophenyl)oxazole-4-carboxamide], for which the half-maximal inhibitory concentration (IC50) at human FLT4 (read-out: FLT4 IC50) and on human Aurora A (read-out: Aurora A IC50) was less than 10 µM in each case.
As for `NC(=O)c1nc(-c2ccc3cc[nH]c3c2)oc1-c1ccc(N2CCNCC2)cc1` [Example M-16, 2-(1H-indol-6-yl)-5-(4-(piperazin-1-yl)phenyl)oxazole-4-carboxamide], the IC50 on human FLT4 (read-out: FLT4 IC50) and on human Aurora A (read-out: Aurora A IC50) was less than 10 µM throughout.
